# Laboratory results reported in PubChem BioAssay AID1996.
# Conditions: buffer; pH 7.4; 200.0 µM
row,SMILES,solubility kinetic
1,COc1ccc(Nc2ncc(F)c(N3CCOCC3)n2)cc1,3.8 µg/mL
2,C/C(=N\OCC(=O)O)c1ccc(Cl)cc1,> 34.1 µg/mL
3,CCCN1CN=C(NS(=O)(=O)c2ccc(C)cc2)NC1,> 44.5 µg/mL
4,Cc1ccc(NC(=O)Cn2cc(C=O)c3ccccc32)cc1C,< 0.3 µg/mL
5,c1cnc(-c2noc(CN3CCN(C4CCCC4)CC3)n2)cn1,> 47.2 µg/mL
6,CNC(=S)NC12CC3CC(CC(C3)C1)C2,3.8 µg/mL
7,CC(C)[N+](C)(C)CC#CC(O)(c1ccccc1)c1ccccc1.[Br-],51 µg/mL
8,CCn1nc(C(=O)NNC(=O)C(Cc2ccccc2)NC(N)=O)c2ccccc2c1=O (stereo unspecified),> 63.4 µg/mL
9,Cc1ccc(CNC(=O)CSc2nc3ccccc3[nH]2)cc1,31.1 µg/mL
10,O=C(Nc1ccc2c(c1)OCO2)C1CC(=O)N(c2ccc3c(c2)OCCO3)C1 (stereo unspecified),3.6 µg/mL
11,CCOc1ccc(N2CC(C(=O)N3CCCc4ccccc43)CC2=O)cc1 (stereo unspecified),47.2 µg/mL
12,Cn1c(Cl)c(/C=N/OC(=O)C2CC2)c2ccccc21,2.7 µg/mL
13,CCCS(=O)(=O)N1CCCC(C(=O)NCCc2ccccc2)C1 (stereo unspecified),48.5 µg/mL
14,O=C(CCNC(=O)c1ccccc1)NCc1ccccc1F,> 45 µg/mL
15,Cc1ccc(-c2nc(Cl)nc3ccccc23)cc1,1.7 µg/mL
16,Cn1cccc1C(=O)NC1CCCCCC1,> 33 µg/mL
17,CC1CCN(S(=O)(=O)c2cccc(S(=O)(=O)N3CCCC3)c2)CC1,28.1 µg/mL
18,Fc1ccccc1NC(=S)NCCc1cccc(Cl)c1,36.7 µg/mL
19,Cc1ccc(N(CC(=O)NCC2CCCO2)S(=O)(=O)c2ccc(Cl)cc2)cc1C (stereo unspecified),40.2 µg/mL
20,CC1(C)CC(=O)C=C(Nc2ccc(C(=O)O)c(O)c2)C1,> 41.3 µg/mL
21,Cc1cc(C)nc(Nc2nc3ccccc3o2)n1,> 36 µg/mL

row,SMILES,solubility kinetic
1,COc1ccc(Br)c(C(=O)OCC(=O)N2CCc3ccccc32)c1,2.3 µg/mL
2,O=C(CN1C(=O)c2cccc([N+](=O)[O-])c2C1=O)NCc1ccccc1,> 50.9 µg/mL
3,O=C(COC(=O)COc1ccccc1[N+](=O)[O-])NCc1ccc2c(c1)OCO2,> 58.2 µg/mL
4,O=C1CN(C(=O)COC(=O)CCc2ccccc2O)c2ccccc2N1,> 53.2 µg/mL
5,OCCN(Cc1ccccc1)C(=S)Nc1ccc(F)cc1,43.1 µg/mL
6,CCn1c(C)nc([N+](=O)[O-])c1C(=O)O,> 29.9 µg/mL
7,O=C(CN1CCc2ccccc2C1)Nc1ccccc1Cl,8.7 µg/mL
8,COc1ccc(OC)c(C(O)C(C)N)c1.Cl (stereo unspecified),> 37.2 µg/mL
9,CC(=O)c1cccc(NC(=O)CC(C)n2ccnc2)c1 (stereo unspecified),> 40.7 µg/mL
10,Cl.NC(Cc1ccccc1)c1nc2ccccc2[nH]1 (stereo unspecified),40.3 µg/mL
11,CC(=O)N(c1nc(CCl)cs1)c1ccc(C)cc1C,> 44.2 µg/mL
12,C[N+](C)(C)Cc1ccccc1.[Cl-],> 27.9 µg/mL
13,OC(CC#CCN1CCCCC1)(c1ccccc1)c1ccccc1,> 47.9 µg/mL
14,Cc1cc(=S)c2ccccc2[nH]1,20.5 µg/mL
15,Cc1nc(C)c(C(=O)OCC(=O)Nc2ccccc2)s1,> 43.6 µg/mL
16,O=C(CN1C(=O)NC2(CCCc3ccccc32)C1=O)c1ccc(F)c(F)c1 (stereo unspecified),17.3 µg/mL
17,CCOC(=O)Cc1csc(NC(=O)CN2CCN(c3ccccc3)CC2)n1,44.6 µg/mL
18,COc1cccc(NC(=O)c2cncs2)c1,32.9 µg/mL
19,Cc1ccc2nc(-c3cccnc3)c(Nc3ccccc3C)n2c1,2.2 µg/mL
20,CCn1c(Oc2ccccc2)nc2c1c(=O)n(C)c(=O)n2C,37.8 µg/mL
21,CC(C)c1ccc(NC(=S)NCc2ccc3c(c2)OCO3)cc1,4.9 µg/mL

row,SMILES,solubility kinetic
1,COC(=O)C1CCN(Cc2cc(=O)oc3cc(C)c(Cl)cc23)CC1,4.7 µg/mL
2,CCS(=O)(=O)Nc1cc2c3c(c1)CCN3C(=O)CC2,> 42.1 µg/mL
3,O=C1CC(NCCc2ccccc2)C(=O)N1CCc1ccccc1 (stereo unspecified),46.1 µg/mL
4,N#Cc1ccc(NCC(=O)Nc2ccc3c(c2)OCCO3)cc1,29.6 µg/mL
5,CCCCN(C(C)=O)C1CC(=O)N(c2ccc(OCCC)cc2)C1=O (stereo unspecified),> 52 µg/mL
6,CC(=O)Nc1ccc(S(=O)(=O)NCC2CCCO2)cc1 (stereo unspecified),> 44.8 µg/mL
7,CC(=O)OC(C(=O)Nc1nccs1)c1ccccc1 (stereo unspecified),> 41.4 µg/mL
8,CC1CCCC(C)N1C(=O)COc1ccc([N+](=O)[O-])cc1Cl (stereo unspecified),> 49 µg/mL
9,CC(C)(C)c1ccc(C(=O)N2CCCC2)s1,> 35.6 µg/mL
10,CC(C)C(=O)NC(c1ccc(Cl)cc1Cl)c1ccc2cccnc2c1O (stereo unspecified),2.8 µg/mL
11,O=C(c1ccco1)c1cn(CC(=O)N2CCCC2)c2ccccc12,> 48.4 µg/mL
12,Cn1c(N)c(C(=O)Nc2cccc(Cl)c2)c(=O)n(C)c1=O,2.5 µg/mL
13,CC(=O)Nc1ccc(C(=O)NCC2CCCCC2)cc1,36.4 µg/mL
14,CN1CCC(NC(=S)Nc2cccc([N+](=O)[O-])c2)CC1,> 44.2 µg/mL
15,COc1cccc(N2CC(C(=O)Nc3ccc(F)cc3)CC2=O)c1 (stereo unspecified),20.3 µg/mL
16,CCc1cc2cccc(C)c2nc1SCC(=O)NC1CCCC1,< 0.4 µg/mL
17,O=C(CN1CCOCC1)N1c2ccccc2Sc2ccccc21,> 49 µg/mL
18,O=C(CSc1c[nH]c2ccccc12)NC1CCCC1,> 41.2 µg/mL
19,COc1ccc(NC(=O)Nc2ccccc2SC)cc1OC,0.6 µg/mL
